# Assay results published in ChEMBL document CHEMBL3885881, “DrugMatrix”.
# Species: Rattus norvegicus
# Assay: DrugMatrix - Regimen: Daily Repeat
# Type: toxicity, organism-based, Sprague-Dawley
# Design: regimen Daily Repeat, gender Male, age 6-8 weeks
# Conditions: in vivo, po, route oral GAVAGE, […]; for ABSOLUTE BASOPHIL / ABSOLUTE EOSINOPHIL / ABSOLUTE LYMPHOCYTE / ABSOLUTE MONOCYTE / ABSOLUTE SEGMENTED NEUTROPHIL / BASOPHIL / EOSINOPHIL / ERYTHROCYTE COUNT / HEMATOCRIT / HEMOGLOBIN / LEUKOCYTE COUNT / LYMPHOCYTE / MEAN CORPUSCULAR HEMOGLOBIN / MEAN CORPUSCULAR HEMOGLOBIN CONCENTRATION / MEAN CORPUSCULAR VOLUME / MONOCYTE / NEUTROPHIL / NUCLEATED RED BLOOD CELLS / PLATELET COUNT: tissue Blood; for ALANINE AMINOTRANSFERASE / ALBUMIN / ALKALINE PHOSPHATASE / ASPARTATE AMINOTRANSFERASE / BLOOD UREA NITROGEN / CARBON DIOXIDE / CHLORIDE / CHOLESTEROL / CREATINE PHOSPHOKINASE / CREATININE / GLUCOSE / LACTATE DEHYDROGENASE / LIPASE / PHOSPHORUS / POTASSIUM / SODIUM / TOTAL BILIRUBIN / TOTAL PROTEIN / URIC ACID: tissue Plasma
# [1] = 52 mg/kg, 72 h, dose level High, time 3 day
# [2] = 52 mg/kg, 120 h, dose level High, time 5 day
# [3] = 72 h, dose 5.2 mg/Kg, dose level Low, time 3 day
# [4] = 120 h, dose 5.2 mg/Kg, dose level Low, time 5 day
smiles,measurement,setting,value
CC(C(=O)O)c1cccc(Oc2ccccc2)c1 (configuration not stated) [FENOPROFEN],ABSOLUTE BASOPHIL,[1],0 CELLS/uL
same,ABSOLUTE EOSINOPHIL,[1],0 CELLS/uL
same,ABSOLUTE LYMPHOCYTE,[1],16297.67 CELLS/uL
same,ABSOLUTE MONOCYTE,[1],471.33 CELLS/uL
same,ABSOLUTE SEGMENTED NEUTROPHIL,[1],2164.33 CELLS/uL
same,BASOPHIL,[1],0%
same,EOSINOPHIL,[1],0%
same,ERYTHROCYTE COUNT,[1],5.47 x10E6/uL
same,HEMATOCRIT,[1],33.6%
same,HEMOGLOBIN,[1],13.27 G/DL
same,LEUKOCYTE COUNT,[1],18.93 x10E3/uL
same,LYMPHOCYTE,[1],87.33%
same,MEAN CORPUSCULAR HEMOGLOBIN,[1],24.23 pg
same,MEAN CORPUSCULAR HEMOGLOBIN CONCENTRATION,[1],39.5 G/DL
same,MEAN CORPUSCULAR VOLUME,[1],61.37 fL
same,MONOCYTE,[1],2.33%
same,NEUTROPHIL,[1],10.33%
same,NUCLEATED RED BLOOD CELLS,[1],0 /100WBC
same,PLATELET COUNT,[1],1245.33 x10E3/uL
same,ALANINE AMINOTRANSFERASE,[1],68.33 u/L
same,ALBUMIN,[1],3.93 G/DL
same,ALKALINE PHOSPHATASE,[1],437.33 u/L
same,ASPARTATE AMINOTRANSFERASE,[1],102 u/L
same,BLOOD UREA NITROGEN,[1],14.67 mg/dL
same,CARBON DIOXIDE,[1],28.67 mmol/L
same,CHLORIDE,[1],102.33 MEQ/L
same,CHOLESTEROL,[1],63.33 mg/dL
same,CREATINE PHOSPHOKINASE,[1],360.67 u/L
same,CREATININE,[1],0.15 mg/dL
same,GLUCOSE,[1],149.67 mg/dL
same,LACTATE DEHYDROGENASE,[1],593 u/L
same,LIPASE,[1],12 u/L
same,PHOSPHORUS,[1],11.6 mg/dL
same,POTASSIUM,[1],7.04 MEQ/L
same,SODIUM,[1],141.5 MEQ/L
same,TOTAL BILIRUBIN,[1],0.17 mg/dL
same,TOTAL PROTEIN,[1],5.37 G/DL
same,URIC ACID,[1],1.53 mg/dL
same,ABSOLUTE BASOPHIL,[2],0 CELLS/uL
same,ABSOLUTE EOSINOPHIL,[2],54 CELLS/uL
same,ABSOLUTE LYMPHOCYTE,[2],12815.33 CELLS/uL
same,ABSOLUTE MONOCYTE,[2],148.67 CELLS/uL
same,ABSOLUTE SEGMENTED NEUTROPHIL,[2],1848.67 CELLS/uL
same,BASOPHIL,[2],0%
same,EOSINOPHIL,[2],0.33%
same,ERYTHROCYTE COUNT,[2],5.11 x10E6/uL
same,HEMATOCRIT,[2],33%
same,HEMOGLOBIN,[2],13.3 G/DL
same,LEUKOCYTE COUNT,[2],14.87 x10E3/uL
same,LYMPHOCYTE,[2],85.67%
same,MEAN CORPUSCULAR HEMOGLOBIN,[2],26 pg
same,MEAN CORPUSCULAR HEMOGLOBIN CONCENTRATION,[2],40.3 G/DL
same,MEAN CORPUSCULAR VOLUME,[2],64.53 fL
same,MONOCYTE,[2],1%
same,NEUTROPHIL,[2],13%
same,NUCLEATED RED BLOOD CELLS,[2],0.33 /100WBC
same,PLATELET COUNT,[2],1200 x10E3/uL
same,ALANINE AMINOTRANSFERASE,[2],64.67 u/L
same,ALBUMIN,[2],4.13 G/DL
same,ALKALINE PHOSPHATASE,[2],380.33 u/L
same,ASPARTATE AMINOTRANSFERASE,[2],93.33 u/L
same,BLOOD UREA NITROGEN,[2],13.33 mg/dL
same,CARBON DIOXIDE,[2],23 mmol/L
same,CHLORIDE,[2],100.67 MEQ/L
same,CHOLESTEROL,[2],57.33 mg/dL
same,CREATINE PHOSPHOKINASE,[2],263.67 u/L
same,CREATININE,[2],0.17 mg/dL
same,GLUCOSE,[2],175 mg/dL
same,LACTATE DEHYDROGENASE,[2],284 u/L
same,LIPASE,[2],10.67 u/L
same,PHOSPHORUS,[2],12 mg/dL
same,POTASSIUM,[2],6.69 MEQ/L
same,SODIUM,[2],141.5 MEQ/L
same,TOTAL BILIRUBIN,[2],0.2 mg/dL
same,TOTAL PROTEIN,[2],5.3 G/DL
same,URIC ACID,[2],1.77 mg/dL
same,ABSOLUTE BASOPHIL,[3],0 CELLS/uL
same,ABSOLUTE EOSINOPHIL,[3],60.67 CELLS/uL
same,ABSOLUTE LYMPHOCYTE,[3],12618.67 CELLS/uL
same,ABSOLUTE MONOCYTE,[3],219.33 CELLS/uL
same,ABSOLUTE SEGMENTED NEUTROPHIL,[3],2034.67 CELLS/uL
same,BASOPHIL,[3],0%
same,EOSINOPHIL,[3],0.33%
same,ERYTHROCYTE COUNT,[3],5.49 x10E6/uL
same,HEMATOCRIT,[3],35%
same,HEMOGLOBIN,[3],14.13 G/DL
same,LEUKOCYTE COUNT,[3],14.93 x10E3/uL
same,LYMPHOCYTE,[3],84%
same,MEAN CORPUSCULAR HEMOGLOBIN,[3],25.83 pg
same,MEAN CORPUSCULAR HEMOGLOBIN CONCENTRATION,[3],40.37 G/DL
same,MEAN CORPUSCULAR VOLUME,[3],63.93 fL
same,MONOCYTE,[3],1.67%
same,NEUTROPHIL,[3],14%
same,NUCLEATED RED BLOOD CELLS,[3],0 /100WBC
same,PLATELET COUNT,[3],1213.67 x10E3/uL
same,ALANINE AMINOTRANSFERASE,[3],79.67 u/L
same,ALBUMIN,[3],3.83 G/DL
same,ALKALINE PHOSPHATASE,[3],345 u/L
same,ASPARTATE AMINOTRANSFERASE,[3],100.33 u/L
same,BLOOD UREA NITROGEN,[3],10.67 mg/dL
same,CARBON DIOXIDE,[3],29 mmol/L
same,CHLORIDE,[3],101 MEQ/L
same,CHOLESTEROL,[3],66 mg/dL
same,CREATINE PHOSPHOKINASE,[3],384 u/L
same,CREATININE,[3],0.14 mg/dL
same,GLUCOSE,[3],162.33 mg/dL
same,LACTATE DEHYDROGENASE,[3],245 u/L
same,LIPASE,[3],12.33 u/L
same,PHOSPHORUS,[3],11.73 mg/dL
same,POTASSIUM,[3],6.15 MEQ/L
same,SODIUM,[3],143.37 MEQ/L
same,TOTAL BILIRUBIN,[3],0.17 mg/dL
same,TOTAL PROTEIN,[3],5.43 G/DL
same,URIC ACID,[3],1.5 mg/dL
same,ABSOLUTE BASOPHIL,[4],0 CELLS/uL
same,ABSOLUTE EOSINOPHIL,[4],43 CELLS/uL
same,ABSOLUTE LYMPHOCYTE,[4],9244.67 CELLS/uL
same,ABSOLUTE MONOCYTE,[4],125.67 CELLS/uL
same,ABSOLUTE SEGMENTED NEUTROPHIL,[4],820 CELLS/uL
same,BASOPHIL,[4],0%
same,EOSINOPHIL,[4],0.33%
same,ERYTHROCYTE COUNT,[4],5.69 x10E6/uL
same,HEMATOCRIT,[4],34.97%
same,HEMOGLOBIN,[4],13.73 G/DL
same,LEUKOCYTE COUNT,[4],10.23 x10E3/uL
same,LYMPHOCYTE,[4],90.33%
same,MEAN CORPUSCULAR HEMOGLOBIN,[4],24.13 pg
same,MEAN CORPUSCULAR HEMOGLOBIN CONCENTRATION,[4],39.3 G/DL
same,MEAN CORPUSCULAR VOLUME,[4],61.43 fL
same,MONOCYTE,[4],1.33%
same,NEUTROPHIL,[4],8%
same,NUCLEATED RED BLOOD CELLS,[4],0 /100WBC
same,PLATELET COUNT,[4],1094 x10E3/uL
same,ALANINE AMINOTRANSFERASE,[4],64 u/L
same,ALBUMIN,[4],4.07 G/DL
same,ALKALINE PHOSPHATASE,[4],422.67 u/L
same,ASPARTATE AMINOTRANSFERASE,[4],91.67 u/L
same,BLOOD UREA NITROGEN,[4],12 mg/dL
same,CARBON DIOXIDE,[4],28 mmol/L
same,CHLORIDE,[4],102.33 MEQ/L
same,CHOLESTEROL,[4],57.33 mg/dL
same,CREATINE PHOSPHOKINASE,[4],306.67 u/L
same,CREATININE,[4],0.15 mg/dL
same,GLUCOSE,[4],153 mg/dL
same,LACTATE DEHYDROGENASE,[4],198.33 u/L
same,LIPASE,[4],11.67 u/L
same,PHOSPHORUS,[4],10.13 mg/dL
same,POTASSIUM,[4],6.12 MEQ/L
same,SODIUM,[4],142.33 MEQ/L
same,TOTAL BILIRUBIN,[4],0.13 mg/dL
same,TOTAL PROTEIN,[4],5.53 G/DL
same,URIC ACID,[4],1.17 mg/dL
